From patent publication US20090131304A1, “Semi-Synthetic Desmethyl-Vancomycin-Based Glycopeptides With Antibiotic Activity” (Novartis Vaccines and Diagnostics, Inc., priority 2005, published 2009)
≈ marks a conversion by molar mass, not a printed value. Where two headings read alike, the source gives them in different places.

Tests used:
Assay type in all cases: cell-based
[1] = system: methicillin-susceptible Staphylococus aureus (MSSA); test: MIC, NCCLS microdilution broth procedure, MSSA; conditions: for MIC: Staphylococcus aureus, read-out: minimum inhibitory concentration (MIC)
Protocol: (§1) The following table identifies specific species of compounds according to the present invention and information concerning their associated antibacterial activity. The antibacterial activity of three compounds in accordance with the present invention (N-biphenyl-methyl-norvacomycin (A); N-chloro-biphenyl-methyl-norvacomycin (B) and desmethyl-vancomycin-gly-p-n-octyloxybenzyl (C)) were tested and compared to unmodified vancomycin (Van) and norvancoycin (Nor). MIC (minimum inhibitory concentration) was measured according to NCCLS standards using the microdilution broth procedure. Serial dilutions of the compounds were placed in a 96-well microplate containing Mueller-Hinton medium. Based on absorbance of 600 nm, diluted overnight cultures were placed in the wells at a final concentration of 5×10^5 cfu/mL. The plate was then placed in a culture box at 35° C. The next day, MIC was determined by visual observation of the plates.
(§2) The glycopeptides were tested against a variety of strains well known in the art for such testing, including methicillin-susceptible Staphylococus aureus (MSSA), methicillin-susceptible Staphylococus epidermidis (MSSE), methicillin-resistant Staphylococus aureus (MRSA), methicillin-resistant Staphylococus epidermidis (MRSE), and glycopeptide-intermediate Staphylococus aureus (GISA). Results are shown in the Table 1 as minimum inhibitory concentration (MIC) in units of μg/ml: […]

[2] = system: methicillin-resistant Staphylococus aureus (MRSA); test: MIC, NCCLS microdilution broth procedure, MRSA; conditions: for MIC: Staphylococcus aureus, MRSA
Protocol: as §1, §2

[3] = system: methicillin-susceptible Staphylococus epidermidis (MSSE); test: MIC, NCCLS microdilution broth procedure, MSSE; conditions: for MIC: read-out: minimum inhibitory concentration (MIC)
Protocol: as §1, §2

[4] = system: methicillin-resistant Staphylococus epidermidis (MRSE); test: MIC, NCCLS microdilution broth procedure, MRSE; conditions: for MIC: Staphylococcus epidermidis, read-out: minimum inhibitory concentration (MIC)
Protocol: as §1, §2

[5] = system: glycopeptide-intermediate Staphylococus aureus (GISA) (V); test: MIC, NCCLS microdilution broth procedure, GISA (V)
Protocol: as §1, §2

[6] = system: glycopeptide-intermediate Staphylococus aureus (GISA) (D); test: MIC, NCCLS microdilution broth procedure, GISA (D)
Protocol: as §1, §2

[7] = MRSA strain # 134, read-out: minimum inhibitory concentration (MIC)
[8] = MRSA strain # 143, read-out: minimum inhibitory concentration (MIC)
[9] = GISA (V) strain # 68, read-out: minimum inhibitory concentration (MIC)
[10] = GISA (V) strain # 143, read-out: minimum inhibitory concentration (MIC)
[11] = GISA (D) strain # 68, read-out: minimum inhibitory concentration (MIC)
[12] = read-out: minimum inhibitory concentration (MIC)

Compound | minimum inhibitory concentration (MIC) ([1]; MSSA strain # 83) | MIC ([1]; MSSA strain # 68) | MIC [2, 7] | MIC [2, 8] | MIC ([3]; MSSE strain # 3) | minimum inhibitory concentration (MIC) ([3]; MSSE strain # 10) | minimum inhibitory concentration (MIC) ([4]; MRSE strain # 25) | minimum inhibitory concentration (MIC) ([4]; MRSE strain # 26) | MIC ([4]; MRSE strain # 24) | MIC [5, 9] | MIC [5, 10] | MIC [6, 11] | minimum inhibitory concentration (MIC) ([6]; GISA (D) strain # 143) | minimum inhibitory concentration (MIC) ([2]; MRSA strain # 143) | minimum inhibitory concentration (MIC) ([5]; GISA (V) strain # 143) | MIC ([1]; MSSA) | MIC [3] | MIC ([4]; MRSE) | further results
CC(C)C[C@H](N)C(=O)N[C@H]1C(=O)N[C@@H](CC(N)=O)C(=O)N[C@H]2C(=O)N[C@H]3C(=O)NC(C(=O)N[C@H](C(=O)O)c4cc(O)cc(O)c4-c4cc3ccc4O)[C@H](O)c3ccc(c(Cl)c3)Oc3cc2cc(c3OC2O[C@H](CO)[C@@H](O)[C@H](O)C2O[C@H]2C[C@](C)(NCc3ccc(-c4ccccc4)cc3)[C@H](O)[C@H](C)O2)Oc2ccc(cc2Cl)[C@H]1O (some centres unmarked) [Compound A, N-Biphenyl-Methyl-Desmethyl-vancomycin] | 2 µg/mL (≈ 1.25 µM) | 2 µg/mL (≈ 1.25 µM) | 2 µg/mL (≈ 1.25 µM) | 4 µg/mL (≈ 2.5 µM) | 4 µg/mL (≈ 2.5 µM) | 4 µg/mL (≈ 2.5 µM) | 4 µg/mL (≈ 2.5 µM) | 4 µg/mL (≈ 2.5 µM) | 4 µg/mL (≈ 2.5 µM) | 8 µg/mL (≈ 5 µM) | 4 µg/mL (≈ 2.5 µM) | 8 µg/mL (≈ 5 µM) | 8 µg/mL (≈ 5 µM) | – | – | – | – | – | –
CC(C)C[C@@H](N)C(=O)N[C@H]1C(=O)N[C@@H](CC(N)=O)C(=O)N[C@H]2C(=O)N[C@H]3C(=O)N[C@H](C(=O)N[C@H](C(=O)O)c4cc(O)cc(O)c4-c4cc3ccc4O)[C@H](O)c3ccc(c(Cl)c3)Oc3cc2cc(c3O[C@@H]2O[C@H](CO)[C@@H](O)[C@H](O)[C@H]2O[C@H]2C[C@](C)(N)[C@H](O)[C@H](C)O2)Oc2ccc(cc2Cl)[C@H]1O [Nor, norvancoycin, reference compound] | 2 µg/mL (≈ 1.39 µM) | – | – | – | – | 2 µg/mL (≈ 1.39 µM) | 2 µg/mL (≈ 1.39 µM) | 2 µg/mL (≈ 1.39 µM) | – | – | – | – | 4 µg/mL (≈ 2.79 µM) | 2 µg/mL (≈ 1.39 µM) | 8 µg/mL (≈ 5.57 µM) | – | – | – | minimum inhibitory concentration (MIC) ([1]; MSSA strain # 68): 2 µg/mL (≈ 1.39 µM); minimum inhibitory concentration (MIC) ([2]; MRSA strain # 134): 2 µg/mL (≈ 1.39 µM); minimum inhibitory concentration (MIC) ([3]; MSSE strain # 3): 2 µg/mL (≈ 1.39 µM); minimum inhibitory concentration (MIC) ([4]; MRSE strain # 24): 2 µg/mL (≈ 1.39 µM); minimum inhibitory concentration (MIC) ([5]; GISA (V) strain # 68): 4 µg/mL (≈ 2.79 µM); minimum inhibitory concentration (MIC) ([6]; GISA (D) strain # 68): 4 µg/mL (≈ 2.79 µM)
CCCCCCCCOc1ccc(CNCC(=O)N[C@@]2(C)C[C@H](OC3C(Oc4c5cc6cc4Oc4ccc(cc4Cl)[C@@H](O)[C@@H](NC(=O)[C@@H](N)CC(C)C)C(=O)N[C@@H](CC(N)=O)C(=O)N[C@H]6C(=O)N[C@H]4C(=O)NC(C(=O)N[C@H](C(=O)O)c6cc(O)cc(O)c6-c6cc4ccc6O)[C@H](O)c4ccc(c(Cl)c4)O5)O[C@H](CO)[C@@H](O)[C@@H]3O)O[C@@H](C)[C@H]2O)cc1 (some centres unmarked) [Compound C, Desmethyl-vancomycin-Gly-p-n-Octyloxybenzyl] | 2 µg/mL (≈ 1.17 µM) | – | – | – | – | 1 µg/mL (≈ 0.585 µM) | 2 µg/mL (≈ 1.17 µM) | 2 µg/mL (≈ 1.17 µM) | – | – | – | – | 4 µg/mL (≈ 2.34 µM) | – | – | 2 µg/mL (≈ 1.17 µM) | 1 µg/mL (≈ 0.585 µM) | 2 µg/mL (≈ 1.17 µM) | MIC ([2]; read-out: minimum inhibitory concentration (MIC), MRSA strain # 134): 2 µg/mL (≈ 1.17 µM); MIC ([2]; read-out: minimum inhibitory concentration (MIC), MRSA strain # 143): 1 µg/mL (≈ 0.585 µM); MIC ([5]; read-out: minimum inhibitory concentration (MIC), GISA (V) strain # 68): 4 µg/mL (≈ 2.34 µM); MIC ([5]; read-out: minimum inhibitory concentration (MIC), GISA (V) strain # 143): 2 µg/mL (≈ 1.17 µM); MIC [6, 12]: 4 µg/mL (≈ 2.34 µM)
CC(C)C[C@H](N)C(=O)N[C@H]1C(=O)N[C@@H](CC(N)=O)C(=O)N[C@H]2C(=O)N[C@H]3C(=O)NC(C(=O)N[C@H](C(=O)O)c4cc(O)cc(O)c4-c4cc3ccc4O)[C@H](O)c3ccc(c(Cl)c3)Oc3cc2cc(c3OC2O[C@H](CO)[C@@H](O)[C@H](O)C2O[C@H]2C[C@](C)(NCc3ccc(-c4ccc(Cl)cc4)cc3)[C@H](O)[C@H](C)O2)Oc2ccc(cc2Cl)[C@H]1O (some centres unmarked) [Compound B, N-Chloro-Biphenyl-Methyl-Desmethyl-vancomycin] | 0.5 µg/mL (≈ 0.306 µM) | 0.5 µg/mL (≈ 0.306 µM) | 0.5 µg/mL (≈ 0.306 µM) | 0.5 µg/mL (≈ 0.306 µM) | 0.5 µg/mL (≈ 0.306 µM) | 0.5 µg/mL (≈ 0.306 µM) | 0.5 µg/mL (≈ 0.306 µM) | 0.5 µg/mL (≈ 0.306 µM) | 0.5 µg/mL (≈ 0.306 µM) | 1 µg/mL (≈ 0.611 µM) | 1 µg/mL (≈ 0.611 µM) | 1 µg/mL (≈ 0.611 µM) | 1 µg/mL (≈ 0.611 µM) | – | – | – | – | – | –
CN[C@H](CC(C)C)C(=O)N[C@H]1C(=O)N[C@@H](CC(N)=O)C(=O)N[C@H]2C(=O)N[C@H]3C(=O)N[C@H](C(=O)N[C@H](C(=O)O)c4cc(O)cc(O)c4-c4cc3ccc4O)[C@H](O)c3ccc(c(Cl)c3)Oc3cc2cc(c3O[C@@H]2O[C@H](CO)[C@@H](O)[C@H](O)[C@H]2O[C@H]2C[C@](C)(N)[C@H](O)[C@H](C)O2)Oc2ccc(cc2Cl)[C@H]1O [Van, vancomycin] | 2 µg/mL (≈ 1.38 µM) | – | – | – | – | 2 µg/mL (≈ 1.38 µM) | 2 µg/mL (≈ 1.38 µM) | 2 µg/mL (≈ 1.38 µM) | – | – | – | – | – | 2 µg/mL (≈ 1.38 µM) | 8 µg/mL (≈ 5.52 µM) | 2 µg/mL (≈ 1.38 µM) | 2 µg/mL (≈ 1.38 µM) | 2 µg/mL (≈ 1.38 µM) | MIC [2, 12]: 2 µg/mL (≈ 1.38 µM); MIC [5, 12]: 8 µg/mL (≈ 5.52 µM); MIC ([6]; read-out: minimum inhibitory concentration (MIC), GISA (D) strain # 68): 8 µg/mL (≈ 5.52 µM); MIC ([6]; read-out: minimum inhibitory concentration (MIC), GISA (D) strain # 143): 4 µg/mL (≈ 2.76 µM)
